SMILES strings stand for the structures.

Broadly, the Ki is a measure of affinity in units of concentration, obtained from inhibition or displacement.

Sequence of human IRAK4 (Q9NWZ3 whole entry, the tested form may be a part): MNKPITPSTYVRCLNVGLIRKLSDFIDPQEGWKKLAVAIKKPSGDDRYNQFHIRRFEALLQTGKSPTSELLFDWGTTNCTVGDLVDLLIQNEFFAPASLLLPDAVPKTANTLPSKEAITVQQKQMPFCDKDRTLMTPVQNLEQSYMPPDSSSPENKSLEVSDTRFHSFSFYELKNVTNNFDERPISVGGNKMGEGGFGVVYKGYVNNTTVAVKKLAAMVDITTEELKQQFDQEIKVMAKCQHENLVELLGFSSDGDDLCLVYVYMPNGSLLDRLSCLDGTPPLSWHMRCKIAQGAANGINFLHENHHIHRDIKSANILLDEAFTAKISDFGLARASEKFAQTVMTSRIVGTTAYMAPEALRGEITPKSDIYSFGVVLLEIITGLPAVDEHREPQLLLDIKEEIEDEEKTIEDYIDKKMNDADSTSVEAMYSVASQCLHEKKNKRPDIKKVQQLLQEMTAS

This assay concerns the target human IRAK4 (Homo sapiens (Human), UniProt Q9NWZ3). As to the kind of experiment: IRAK4 kinase inhibition, Transcreener fluorescence polarization ADP assay. As to conditions: recombinant full-length His6-IRAK4; 125 uM ATP; 90 min; Ki computed using ATP Km 642 uM. Type of assay: biochemical. Here is the method:
Compounds were assayed for inhibition of human IRAK4 and IRAK1 catalytic activity using recombinant enzyme produced from insect cells. Full-length IRAK4 protein, carrying an N-terminal His6-Tag, was obtained from Life Technologies (Carlsbad, Calif., USA). The IRAK1 construct was produced internally and was comprised of IRAK1 residues Arg194 to Ser712, preceded by an NH2-terminal His6 tag and the coding sequence for glutathione-S-transferase.
For orientation: In fluorescence polarisation assays a small probe gives low polarisation when free and higher when bound to something large.
`CC1(C)Cc2cc(NC(=O)c3cnn4cccnc34)c(O[C@H]3CCN(CC(N)=O)C3)cc2O1` [Example 447, (S)-N-(6-((1-(2-amino-2-oxoethyl)pyrrolidin-3-yl)oxy)-2,2-dimethyl-2,3-dihydrobenzofuran-5-yl)pyrazolo[1,5-a]pyrimidine-3-carboxamide]: the inhibition constant Ki worked out at 0.006 µM.

On to `CCn1cc(COc2cc3c(cc2NC(=O)c2cnn4cccnc24)CC(C)(C)O3)cn1` [Example 448, N-(6-((1-ethyl-1H-pyrazol-4-yl)methoxy)-2,2-dimethyl-2,3-dihydrobenzofuran-5-yl)pyrazolo[1,5-a]pyrimidine-3-carboxamide], for which the Ki is 0.024 µM.

Turning to `N[C@H]1CO[C@@H](CN2Cc3cc(NC(=O)c4cnn5cccnc45)c(N4CCOCC4)cc3C2=O)OC1` [Example 449, N-(2-(((2R,5R)-5-amino-1,3-dioxan-2-yl)methyl)-6-morpholino-1-oxoisoindolin-5-yl)pyrazolo[1,5-a]pyrimidine-3-carboxamide], the Ki came to 0.08 µM.

Consider `COc1cc2c(cc1NC(=O)c1cnn3ccc(N[C@@H]4CCCC[C@@H]4N)nc13)CC(C)(C)O2` [Example 451, 5-[[(1R,2S)-2-aminocyclohexyl]amino]-N-(6-methoxy-2,2-dimethyl-3H-benzofuran-5-yl)pyrazolo[1,5-a]pyrimidine-3-carboxamide], for which the Ki is 0.0047 µM.

Regarding `CC1(C)Cc2cc(NC(=O)c3cnn4cccnc34)c(C(N)=O)cc2O1` [Example 452, N-(6-carbamoyl-2,2-dimethyl-3H-benzofuran-5-yl)pyrazolo[1,5-a]pyrimidine-3-carboxamide], the Ki amounted to 0.15 µM.

Consider `CCN1CCN(c2cc3c(cc2NC(=O)c2cnn4cccnc24)CC(C)(C)O3)CC1` [Example 453, N-(6-(4-ethylpiperazin-1-yl)-2,2-dimethyl-2,3-dihydrobenzofuran-5-yl)pyrazolo[1,5-a]pyrimidine-3-carboxamide], for which the Ki was determined as 0.044 µM.

Consider `CSCCN1CCN(c2cc3c(cc2NC(=O)c2cnn4cccnc24)CC(C)(C)O3)CC1` [Example 454, N-(2,2-dimethyl-6-(4-(2-(methylthio)ethyl)piperazin-1-yl)-2,3-dihydrobenzofuran-5-yl)pyrazolo[1,5-a]pyrimidine-3-carboxamide], for which the Ki came to 0.0088 µM.

As for `CC1(C)Cc2cc(NC(=O)c3cnn4cccnc34)c(N3CCN(CCC(N)=O)CC3)cc2O1` [Example 455, N-(6-(4-(3-amino-3-oxopropyl)piperazin-1-yl)-2,2-dimethyl-2,3-dihydrobenzofuran-5-yl)pyrazolo[1,5-a]pyrimidine-3-carboxamide], the Ki turned out to be 0.0058 µM.

Turning to `CC1(C)Cc2cc(NC(=O)c3cnn4cccnc34)c(N3CCN(CC#N)CC3)cc2O1` [Example 456, N-(6-(4-(cyanomethyl)piperazin-1-yl)-2,2-dimethyl-2,3-dihydrobenzofuran-5-yl)pyrazolo[1,5-a]pyrimidine-3-carboxamide], the Ki came out at 0.0026 µM.

Regarding `CC1(C)Cc2cc(NC(=O)c3cnn4cccnc34)c(N3CCN(CCC#N)CC3)cc2O1` [Example 457, N-(6-(4-(2-cyanoethyl)piperazin-1-yl)-2,2-dimethyl-2,3-dihydrobenzofuran-5-yl)pyrazolo[1,5-a]pyrimidine-3-carboxamide], the Ki is 0.0044 µM.

Consider `CC1(C)Cc2cc(NC(=O)c3cnn4cccnc34)c(N3CCN(CC4CC4)CC3)cc2O1` [Example 458, N-(6-(4-(cyclopropylmethyl)piperazin-1-yl)-2,2-dimethyl-2,3-dihydrobenzofuran-5-yl)pyrazolo[1,5-a]pyrimidine-3-carboxamide], for which the Ki is 0.037 µM.

Take `Cc1noc(CN2CCN(c3cc4c(cc3NC(=O)c3cnn5cccnc35)CC(C)(C)O4)CC2)n1` [Example 459, N-(2,2-dimethyl-6-(4-((3-methyl-1,2,4-oxadiazol-5-yl)methyl)piperazin-1-yl)-2,3-dihydrobenzofuran-5-yl)pyrazolo[1,5-a]pyrimidine-3-carboxamide]: the Ki stood at 0.016 µM.

On to `Cn1cc(CN2CCN(c3cc4c(cc3NC(=O)c3cnn5cccnc35)CC(C)(C)O4)CC2)cn1` [Example 460, N-(2,2-dimethyl-6-(4-((1-methyl-1H-pyrazol-4-yl)methyl)piperazin-1-yl)-2,3-dihydrobenzofuran-5-yl)pyrazolo[1,5-a]pyrimidine-3-carboxamide], for which the Ki was 0.0059 µM.

Take `Cc1nc(CN2CCN(c3cc4c(cc3NC(=O)c3cnn5cccnc35)CC(C)(C)O4)CC2)no1` [Example 461, N-(2,2-dimethyl-6-(4-((5-methyl-1,2,4-oxadiazol-3-yl)methyl)piperazin-1-yl)-2,3-dihydrobenzofuran-5-yl)pyrazolo[1,5-a]pyrimidine-3-carboxamide]: the Ki is 0.029 µM.

On to `CC1(C)Cc2cc(NC(=O)c3cnn4cccnc34)c(N3CCN(CCn4cccn4)CC3)cc2O1` [Example 462, N-(6-(4-(2-(1H-pyrazol-1-yl)ethyl)piperazin-1-yl)-2,2-dimethyl-2,3-dihydrobenzofuran-5-yl)pyrazolo[1,5-a]pyrimidine-3-carboxamide], for which the Ki came to 0.0065 µM.

On to `Cc1nnc(CN2CCN(c3cc4c(cc3NC(=O)c3cnn5cccnc35)CC(C)(C)O4)CC2)o1` [Example 463, N-(2,2-dimethyl-6-(4-((5-methyl-1,3,4-oxadiazol-2-yl)methyl)piperazin-1-yl)-2,3-dihydrobenzofuran-5-yl)pyrazolo[1,5-a]pyrimidine-3-carboxamide], for which the Ki was 0.025 µM.

For `CC1(C)Cc2cc(NC(=O)c3cnn4cccnc34)c(N3CCN(CC4CCOCC4)CC3)cc2O1` [Example 464, N-(2,2-dimethyl-6-(4-((tetrahydro-2H-pyran-4-yl)methyl)piperazin-1-yl)-2,3-dihydrobenzofuran-5-yl)pyrazolo[1,5-a]pyrimidine-3-carboxamide], the Ki is 0.067 µM.

As to `COCCCN1CCN(c2cc3c(cc2NC(=O)c2cnn4cccnc24)CC(C)(C)O3)CC1` [Example 465, N-(6-(4-(3-methoxypropyl)piperazin-1-yl)-2,2-dimethyl-2,3-dihydrobenzofuran-5-yl)pyrazolo[1,5-a]pyrimidine-3-carboxamide], the Ki was 0.038 µM.

With `CC1(C)Cc2cc(NC(=O)c3cnn4cccnc34)c(N3CCN(CC4CCC4)CC3)cc2O1` [Example 466, N-(6-(4-(cyclobutylmethyl)piperazin-1-yl)-2,2-dimethyl-2,3-dihydrobenzofuran-5-yl)pyrazolo[1,5-a]pyrimidine-3-carboxamide], the Ki is 0.099 µM.

As for `CC1(C)Cc2cc(NC(=O)c3cnn4cccnc34)c(N3CCN(C4CCNC4=O)CC3)cc2O1` (centres unmarked) [Example 467, N-(2,2-dimethyl-6-(4-(2-oxopyrrolidin-3-yl)piperazin-1-yl)-2,3-dihydrobenzofuran-5-yl)pyrazolo[1,5-a]pyrimidine-3-carboxamide], the Ki amounted to 0.013 µM.

As for `CC1(C)Cc2cc(NC(=O)c3cnn4cccnc34)c(N3CCN(CC4CCC(=O)N4)CC3)cc2O1` (centres unmarked) [Example 468, N-(2,2-dimethyl-6-(4-((5-oxopyrrolidin-2-yl)methyl)piperazin-1-yl)-2,3-dihydrobenzofuran-5-yl)pyrazolo[1,5-a]pyrimidine-3-carboxamide], the inhibition constant Ki was 0.0051 µM.

Turning to `CC1(C)Cc2cc(NC(=O)c3cnn4cccnc34)c(N3CCN(CC(O)CO)CC3)cc2O1` (centres unmarked) [Example 469, N-(6-(4-(2,3-dihydroxypropyl)piperazin-1-yl)-2,2-dimethyl-2,3-dihydrobenzofuran-5-yl)pyrazolo[1,5-a]pyrimidine-3-carboxamide], the Ki was 0.0088 µM.

For the molecule `CC1(C)Cc2cc(NC(=O)c3cnn4cccnc34)c(N3CCN(CCN4CCCC4=O)CC3)cc2O1` [Example 470, N-(2,2-dimethyl-6-(4-(2-(2-oxopyrrolidin-1-yl)ethyl)piperazin-1-yl)-2,3-dihydrobenzofuran-5-yl)pyrazolo[1,5-a]pyrimidine-3-carboxamide], the Ki was 0.012 µM.

Turning to `CC1(C)Cc2cc(NC(=O)c3cnn4cc(CO)cnc34)c(N3CCOCC3)cc2O1` [Example 471, N-(2,2-dimethyl-6-morpholino-3H-benzofuran-5-yl)-6-(hydroxymethyl)pyrazolo[1,5-a]pyrimidine-3-carboxamide], the Ki amounted to 0.0065 µM.

For the molecule `C[C@H](C(N)=O)N1CCN(c2cc3c(cc2NC(=O)c2cnn4cccnc24)CC(C)(C)O3)CC1` [Example 472, N-[6-[4-[(1R)-2-amino-1-methyl-2-oxo-ethyl]piperazin-1-yl]-2,2-dimethyl-3H-benzofuran-5-yl]pyrazolo[1,5-a]pyrimidine-3-carboxamide], the inhibitory constant (Ki) was found to be 0.0025 µM.

As for `C[C@@H](C(N)=O)N1CCN(c2cc3c(cc2NC(=O)c2cnn4cccnc24)CC(C)(C)O3)CC1` [Example 473, N-[6-[4-[(1S)-2-amino-1-methyl-2-oxo-ethyl]piperazin-1-yl]-2,2-dimethyl-3H-benzofuran-5-yl]pyrazolo[1,5-a]pyrimidine-3-carboxamide], the Ki stood at 0.005 µM.

For the molecule `C[C@H](O)CN1CCN(c2cc3c(cc2NC(=O)c2cnn4cccnc24)CC(C)(C)O3)CC1` [Example 474, (S)-N-(6-(4-(2-hydroxypropyl)piperazin-1-yl)-2,2-dimethyl-2,3-dihydrobenzofuran-5-yl)pyrazolo[1,5-a]pyrimidine-3-carboxamide], the Ki was 0.02 µM.

Regarding `C[C@@H](O)CN1CCN(c2cc3c(cc2NC(=O)c2cnn4cccnc24)CC(C)(C)O3)CC1` [Example 475, (R)-N-(6-(4-(2-hydroxypropyl)piperazin-1-yl)-2,2-dimethyl-2,3-dihydrobenzofuran-5-yl)pyrazolo[1,5-a]pyrimidine-3-carboxamide], the Ki is 0.0095 µM.

With `CC(C)(N)CN1CCN(c2cc3c(cc2NC(=O)c2cnn4cccnc24)CC(C)(C)O3)CC1` [Example 476, N-(6-(4-(2-amino-2-methylpropyl)piperazin-1-yl)-2,2-dimethyl-2,3-dihydrobenzofuran-5-yl)pyrazolo[1,5-a]pyrimidine-3-carboxamide], the Ki was 0.033 µM.

These data come from patent publication US10988478B1, “Pyrazolo[1,5a]pyrimidine derivatives as IRAK4 modulators” (Genentech, Inc., priority 2015, dated 2021).
